For 89 molecules, LC retention time results are on record in the RepoRT retention time repository.

The nature of this data set: Waters ACQUITY UPLC HSS T3, 0.4 mL/min; A: water + 0.1% formic acid; B: acetonitrile + 0.1% formic acid; gradient (min/%B) 0/5 1.5/5 12/95 14/95 14.01/100 17/100. The following applies: stereoisomer not certain.
In the case of `CC(CP(CCCCCCS(=O)(=O)[O-])CCCCCCS(=O)(=O)[O-])P(CCCCCCS(=O)(=O)[O-])CCCCCCS(=O)(=O)[O-]` (centres undefined), the LC retention time stood at 1.02 min.

For the molecule `CCCCC(S)CCOC` (centres undefined), the LC retention time came out at 0.75 min.

As for `CCCCCCC=CCCCCCCCCCC(=O)OC(CCC(=O)[O-])[N+](C)(C)C` (centres undefined), the LC retention time was 9.56 min.

With `CC(=O)C1OC1(O)C(C)=CC=CC(C)=CC=CC=C(C)C=CC=C(C)C=CC1=C(C)CCCC1(C)C` (centres undefined), the LC retention time was 10.4 min.

As for `CC1CCC2(C(=O)O)CCC3(C)C(=CCC4C5(C)CC(O)C(OC(=O)C=Cc6ccc(O)cc6)C(C)(C)C5CCC43C)C2C1C` (centres undefined), the LC retention time came out at 11 min.

Consider `CC(C)CC(N)C(=O)O` (centres undefined), for which the LC retention time came out at 1.31 min.

With `CC(C)CC(NC(=O)OC(C)(C)C)C(=O)O` (centres undefined), the LC retention time came to 3 min.

Regarding `CCC(C)C(N)C(=O)NC(CCC(=O)O)C(=O)O` (centres undefined), the LC retention time worked out at 1.05 min.

As to `O=S(=O)([O-])CCCCCCCP(CCCCCCCS(=O)(=O)[O-])CN(CP(CCCCCCCS(=O)(=O)[O-])CCCCCCCS(=O)(=O)[O-])c1ccccc1`, the LC retention time came out at 1.3 min.

For the molecule `Nc1ncnc2c1ncn2C1OC(CO)C(OP(=O)(O)O)C1O` (centres undefined), the LC retention time stood at 0.934 min.

For the molecule `CC1(C)OC2(C)C(O)CC1CC2OC1OC(CO)C(O)C(O)C1O` (centres undefined), the LC retention time was determined as 3.99 min.

With `Nc1nc2c(ncn2C2CC(O)C(COP(=O)(O)O)O2)c(=O)[nH]1` (centres undefined), the LC retention time is 0.934 min.

Turning to `CCC(C)C(N)C(=O)O` (centres undefined), the LC retention time stood at 1.31 min.

`O=C(OCC1OC(Oc2ccc(C=Cc3cc(O)cc(O)c3)cc2O)C(O)C(O)C1O)c1cc(O)c(O)c(O)c1` (centres undefined): the LC retention time was determined as 1.11 min.

As for `CCCCCCCCCCCCCCCC(=O)OC1C(C)OC(OC2C(OCCCC)OC(CO)C(O)C2O)C(O)C1O` (centres undefined), the LC retention time worked out at 10.4 min.

In the case of `CCC=CCC(O)C(O)C=CC=CC=CC=CC(O)CC=CCCC(=O)O` (centres undefined), the LC retention time was 5.01 min.

Regarding `CC1(OC2OC(CO)C(O)C(O)C2O)CC(O)C2(C(C)(C)O)CC12` (centres undefined), the LC retention time came out at 3.99 min.

`C[N+](C)(C)CCO`: the LC retention time was 0.706 min.

As to `CCCC(N)C(=O)O` (centres undefined), the LC retention time turned out to be 1.02 min.

For `CC12CCC(O)(CC1OC1OC(CO)C(O)C(O)C1O)C(C)(C)O2` (centres undefined), the LC retention time stood at 3.99 min.

Consider `CC(C)C(=O)OC(CC(=O)[O-])C[N+](C)(C)C` (centres undefined), for which the LC retention time is 3 min.

Consider `COc1cc(CCCO)ccc1OC(CO)COC1OCC(O)C(O)C1O` (centres undefined), for which the LC retention time was determined as 0.755 min.

In the case of `CCCCCCCCCCCCCCCCCCC(=O)OCC(O)COP(=O)(O)OCC(N)C(=O)O` (centres undefined), the LC retention time turned out to be 5.17 min.

Consider `CC(=CC(=O)OC1OC(CO)C(O)C(O)C1O)CCC=C(C)CCC(O)C(C)(C)O` (centres undefined), for which the LC retention time was 9.03 min.

Turning to `CC(=O)C1CCC2C3CCC4CC(=O)CCC4(C)C3CCC12C` (centres undefined), the LC retention time is 11.8 min.

For the molecule `OC1CC2CC(O)C(C1)N2` (centres undefined), the LC retention time is 0.818 min.

With `CCC(C)C(=O)OC1CC(C)(O)C=C2C=CC(C)C(CCC3CC(O)CC(=O)O3)C21` (centres undefined), the LC retention time is 5.18 min.

Consider `CCCCCC1OC(=O)C(C(C)CC)N(C)C(=O)C2CCCN2C(=O)C(C(C)C)OC(=O)C(Cc2ccccc2)N(C)C(=O)C(C(C)C)NC(=O)C1C` (centres undefined), for which the LC retention time was 9.85 min.

`CCCCCCCCCCCCCCCCCC(=O)NC(Cc1ccc(O)cc1)C(=O)O` (centres undefined): the LC retention time is 9.13 min.

Take `O=c1[nH]cnc2nc[nH]c12`: the LC retention time was determined as 1.1 min.

`CCCCCCCCCCCCCCCCCC(=O)OC(CO)COP(=O)(O)OCC(O)CO` (centres undefined): the LC retention time stood at 5.64 min.

For the molecule `CC1CCC2C(C)C3C(CC4C5CC=C6CC(OC7OC(CO)C(O)C(OC8OC(CO)C(O)C(O)C8O)C7O)CCC6(C)C5CCC43C)N2C1` (centres undefined), the LC retention time came to 9.86 min.

On to `CCCCCC=CCC=CCCCCCCCC(=O)OCC(COP(=O)(O)OCC(O)CO)OC(=O)CCCCCCCC=CCCCCCC` (centres undefined), for which the LC retention time was found to be 13.9 min.

On to `CC(C)=CCCC(C)CCOC1OC(CO)C(O)C(O)C1OC1OC(CO)C(O)C(O)C1O` (centres undefined), for which the LC retention time was found to be 4.52 min.

Take `CC(C)C(CCC(C)C1CC(O)C2C1(C)CCC1C3(C)CCC(OC4OCC(O)C(O)C4O)CC3C(O)CC12O)OC1OCC(O)C(O)C1O` (centres undefined): the LC retention time was found to be 5.56 min.

As for `COC1(CCC(C)COC2OC(CO)C(O)C(O)C2O)OC2CC3C4CCC5CC(=O)CCC5(C)C4CCC3(C)C2C1C` (centres undefined), the LC retention time was found to be 9.93 min.

As to `CC(=O)NC(CO)C(=O)O` (centres undefined), the LC retention time came out at 0.786 min.

As to `C=CC(C)(CCC=C(C)CCC=C(C)CCC(OC1OC(CO)C(O)C(O)C1O)C(C)(C)O)OC1OC(CO)C(O)C(O)C1O` (centres undefined), the LC retention time is 4.81 min.

Consider `O=C(O)CCCC(O)C=CC=CCCC(O)CC=CCCCCC(O)(O)O` (centres undefined), for which the LC retention time is 8.55 min.

As for `O=C(O)CCCSCCCCSCCCC(=O)O`, the LC retention time turned out to be 0.766 min.

As to `Nc1nc2c(ncn2CCC(CO)CO)c(=O)[nH]1`, the LC retention time turned out to be 1.03 min.

Regarding `CCCCCC=CCC(O)C=CC=CCC=CCCCC(=O)NCCS(=O)(=O)O` (centres undefined), the LC retention time turned out to be 4.09 min.

As to `CC(C)(OC1OC(CO)C(O)C(O)C1O)C1CCC(O)(CO)CC1` (centres undefined), the LC retention time was 5.08 min.

For the molecule `CCCCCCCCC=CCCCCCCCC(=O)OC(CC(=O)[O-])C[N+](C)(C)C` (centres undefined), the LC retention time is 9.56 min.

With `NC(=O)c1cccnc1`, the LC retention time was determined as 1.06 min.

For `CCC(=O)C1CC(C)C2(CC(=O)C3(C)C4=C(CCC32C)C2(C)C=CC(=O)C(C)(CO)C2CC4)O1` (centres undefined), the LC retention time was determined as 5.53 min.

For `CC1CCC(C(C)(O)CO)CC1OC1OC(CO)C(O)C(O)C1O` (centres undefined), the LC retention time was determined as 5.08 min.

For the molecule `CC(CCc1ccccc1)NCC(O)c1ccc(O)c(C(N)=O)c1` (centres undefined), the LC retention time was determined as 4.52 min.

On to `CN(C)C`, for which the LC retention time is 0.706 min.

With `CNCC(=O)O`, the LC retention time is 0.806 min.

Turning to `CCCCCC(=O)OCCC(CCC)SC` (centres undefined), the LC retention time was determined as 3.91 min.

Take `CCCCC=CCCCCCCCC(=O)OCC(COP(=O)(O)OCC(N)C(=O)O)OC(=O)CCCCCCCCCCC` (centres undefined): the LC retention time is 5.43 min.

In the case of `C[N+](C)(C)CCOP(=O)([O-])O`, the LC retention time was 0.761 min.

Take `CC12CCC(=O)C=C1CCC1C2C(O)CC2(C)C(C(O)CC(=O)O)CCC12` (centres undefined): the LC retention time stood at 5.01 min.

In the case of `C=C1C(=O)OC2C1CCC(=O)CC1(C)CCC(O)OC21` (centres undefined), the LC retention time is 6.31 min.

On to `CCCCCC=CCC=CCC=CCCCCC(=O)OC(COC(=O)CCCCCCCCCCCCCCC)COP(=O)(O)OCC(O)CO` (centres undefined), for which the LC retention time turned out to be 13.9 min.

With `CC1OC(CC(=O)O)Cc2c1c(O)c1c(O)c(-c3cc(=O)c4c(=O)c5c(c(=O)c=4c3=O)C(C)OC(CC(=O)O)C5)cc(O)c1c2O` (centres undefined), the LC retention time is 1.05 min.

For the molecule `CC1C(=O)OC2C3=C(C(=O)CC3(C)O)C(C)(O)CCC12` (centres undefined), the LC retention time stood at 6.31 min.

For the molecule `CCCCCCCCCCCCCCCCCCOC(=O)CC(O)(CC(=O)O)C(=O)O` (centres undefined), the LC retention time is 10.5 min.

For the molecule `CCCCCC(=O)CCC1C=CC(=O)C1CC=CCCCC(=O)O` (centres undefined), the LC retention time was 4.99 min.

On to `CCCCCC=CCC=CCC=CCCCCC(=O)OCC(COP(=O)(O)OCC(O)CO)OC(=O)CCCCCCCCCCCCCCC` (centres undefined), for which the LC retention time is 13.9 min.

For the molecule `CC(=O)c1cnccn1`, the LC retention time is 1.06 min.

For the molecule `CC(C)SC(C)C`, the LC retention time worked out at 1.02 min.

As for `CCC1OC(=O)C(C)C(OC2CC(C)(O)C(O)C(C)O2)C(C)C(O)C(C)(O)CC(C)C(=O)C(C)C(O)C1C` (centres undefined), the LC retention time was 9.82 min.

Take `Nc1nc2c(c(=O)[nH]1)NC(C(O)C(O)COP(=O)(O)OP(=O)(O)OP(=O)(O)O)C(O)N2O` (centres undefined): the LC retention time came out at 5.68 min.

On to `CC1(C)C2C(O)CC(C)(C2O)C1OC1OC(CO)C(O)C(O)C1O` (centres undefined), for which the LC retention time stood at 3.99 min.

As for `CCCCCC(O)C=CC1C(O)CC(O)C1CC(=O)CCC(=O)O` (centres undefined), the LC retention time stood at 8.51 min.

Regarding `CC1(C)CCC2(C(=O)O)CCC3(C)C(=CCC4C5(C)CC(O)C(OC(=O)C=Cc6ccc(O)cc6)C(C)(C)C5CCC43C)C2C1` (centres undefined), the LC retention time was determined as 11 min.

As for `CC(=O)OCC[N+](C)(C)C`, the LC retention time came to 0.772 min.

`CC1=CC(c2c(O)c(C(=O)CCc3ccccc3)c(O)c(C3C=C(C)CCC3C(C)C)c2O)C(C(C)C)CC1` (centres undefined): the LC retention time was found to be 11 min.

In the case of `C[N+](C)(C)CC(O)CC(=O)[O-]` (centres undefined), the LC retention time turned out to be 0.75 min.

`CSCCC(N)C(=O)O` (centres undefined): the LC retention time turned out to be 1.04 min.

For `O=c1[nH]cnc2[nH]ncc12`, the LC retention time stood at 1.1 min.

On to `CC(=O)OC(CC(=O)[O-])C[N+](C)(C)C` (centres undefined), for which the LC retention time is 0.839 min.

For `COc1cc2c(c(OC)c1CC=C(C)C)CC(c1ccc(O)c3c1OC(C)(C)C=C3)CO2` (centres undefined), the LC retention time amounted to 4.37 min.

Take `C=C(C)C1CCC2(C(=O)O)CCC3(C)C(CCC4C5(C)CC(O)C(OC(=O)C=Cc6ccc(O)cc6)C(C)(C)C5CCC43C)C12` (centres undefined): the LC retention time is 11 min.

Regarding `CC(CCC(=O)NCCS(=O)(=O)O)C1CCC2C3C(O)CC4CC(O)CCC4(C)C3CC(O)C12C` (centres undefined), the LC retention time was 4.43 min.

With `Oc1cc(O)c2c(c1)OC(c1cc(O)c(O)c(O)c1)C(O)C2` (centres undefined), the LC retention time worked out at 1.05 min.

Turning to `C=C(CO)C1CCC(C)(O)C(OC2OC(CO)C(O)C(O)C2O)C1` (centres undefined), the LC retention time is 3.99 min.

With `NCCC(=O)O`, the LC retention time came to 0.806 min.

Take `CNc1ccccc1C(=O)OCC(C)C`: the LC retention time came out at 4.98 min.

For `CC(CCC(=O)NCCS(=O)(=O)O)C1CCC2C3C(O)C(O)C4CC(O)CCC4(C)C3CCC12C` (centres undefined), the LC retention time worked out at 4.43 min.

As for `CCCCCC(N)C(=O)O` (centres undefined), the LC retention time was found to be 0.772 min.

As to `Nc1ncnc2c1ncn2C1OC(CO)C(O)C1OP(=O)(O)O` (centres undefined), the LC retention time was 0.934 min.

On to `OCCOCCOCCOCCOCCOCCOCCO`, for which the LC retention time was determined as 3.99 min.

Turning to `CCCCCC=CCC(O)CC=CC=CC(SCC(N)C(=O)O)C(O)CCCC(=O)O` (centres undefined), the LC retention time was found to be 9.02 min.

For `CCC=CCC=CCC=CCC=CCC=CCC=CCCC(=O)OCC(O)COP(=O)(O)OCCN` (centres undefined), the LC retention time stood at 4.65 min.

As to `CC(C)OC(=O)C(C(=O)OC(C)C)=C1SCCS1`, the LC retention time stood at 1.14 min.

Consider `CCCC(=O)OC(CC(=O)[O-])C[N+](C)(C)C` (centres undefined), for which the LC retention time is 3 min.
